# Measured values published in the NIST ThermoML archive (doi:10.1016/j.fluid.2013.07.061).
# Numbers after ± are expanded uncertainties.
# Key:
# [1] = Molar enthalpy of transition or fusion; conditions: DSC
# [2] = DTA; for Normal melting temperature: Crystal 1
Compound,Molar enthalpy of transition or fusion ([1]; Crystal 1),Molar enthalpy of transition or fusion ([1]; Crystal 2),Molar enthalpy of transition or fusion ([1]; Crystal 3),Normal melting temperature [2],Triple point temperature ([2]; Crystal 2),Triple point temperature ([2]; Crystal 3)
CCC[N+]1(C)CCCC1.F[P-](F)(F)(F)(F)F [1-methyl-1-propylpyrrolidinium hexafluorophosphate],0.875 ± 0.0765 kcal/mol,0.55 ± 0.0478 kcal/mol,0.66 ± 0.0502 kcal/mol,110.5 ± 1.4 °C,360.88 ± 1.7 K,348.58 ± 1.3 K
CCCC[N+](CCCC)(CCCC)CCCC.F[P-](F)(F)(F)(F)F [tetrabutylammonium hexafluorophosphate],3.92 ± 0.153 kcal/mol,0.492 ± 0.55 kcal/mol,0.502 ± 0.0526 kcal/mol,251.1 ± 0.9 °C,360.7 ± 0.7 K,303.95 ± 0.39 K
CCCC[P+](CCCC)(CCCC)CCCC.F[P-](F)(F)(F)(F)F [tetrabutylphosphonium hexafluorophosphate],3.51 ± 0.0884 kcal/mol,–,0.433 ± 0.0335 kcal/mol,225.5 ± 0.4 °C,–,265.37 ± 0.39 K
CCC[N+]1(C)CCCCC1.F[P-](F)(F)(F)(F)F [1-methyl-1-propylpiperidinium hexafluorophosphate],1.23 ± 0.0454 kcal/mol,0.664 ± 0.0335 kcal/mol,1.89 ± 0.1 kcal/mol,95.1 ± 0.4 °C,350.96 ± 0.39 K,310.6 ± 0.73 K
